Tests used:
293 cells [1] = test: Effect of replacement compounds on the growth of 293 cells in 293 SFM without transferrin, three passages; format: cell-based, human; details: third passage, control 5 μg/mL human holo-transferrin
Procedure: Semi-confluent adherent cultures of 293 Cells (ATCC, CRL 1573) are readily adapted to suspension culture. The cells are first detached with a solution of Trypsin-EDTA (0.05% Trypsin, 0.53 mM Na4EDTA), and then resuspended in conventional medium supplemented with 10% FBS to inhibit the trypsin. The resuspended cells are centrifuged at 200×g for five minutes.
The initial seeding density of the 293 cells after conversion to suspension culture is 1×10^6 cells/mL. The cells are shaken on a rotary shaker at 150 rpm in a 37° C. incubator equilibrated with 8% CO2-92% air. […] Because 293 cells have a tendency to aggregate, the cells can be vortexed vigorously for approximately 45 seconds to obtain a predominantly single cell suspension at the time of passaging and counting. After several passages in suspension culture, the maximum achievable density can be determined.
(§1) For replacement compound evaluation, 293 cells were established in 125 mL shaker flasks at an initial viable seeding density of 2×10^5 cells/mL in a final volume of 20 mL. All cultures were maintained at 37° C. in humidified air containing 8% CO2. To eliminate transferrin carry-over effects, cells were subcultured at 4 day intervals for a total of three passages. At each subculturing, cells were seeded at a density of 2×10^5 cells/mL. Positive control cultures contained 5 μg/mL human holo-transferrin while negative control cultures were established in the absence of either transferrin or replacement compound. Replacement compound stocks were prepared at 0.1M-0.2M in ddH2O and solubilized when necessary using 5N NaOH or HCl. Iron complexes were established using 0.2 M replacement compound and iron stocks mixed 1:1 (v/v) and incubated for 5-10 minutes at 22° C. All solutions containing replacement compounds were filter sterilized using a 0.22 μm Millex-GV filter prior to addition to transferrin and serum-free media.
Except where noted, replacement compounds were evaluated either alone or in combination with ferric chloride or ferrous sulfate at 25 μM, 50 μM and 100 μM. When used in combination, the replacement compounds were used in equimolar concentration with iron ions. Values in Table 4 represent the mean percentage of control growth for duplicate cultures determined at the third passage.
When added to the medium formulation uncomplexed, the replacement compound is listed alone, when added as a complex with a transition metal, the source of the transition metal is listed with the replacement compound.

CHO cells = test: Effect of replacement compounds on the growth of CHO cells in CD CHO medium without transferrin, three passages; format: cell-based, Chinese hamster; details: third passage
Procedure: as §1, with “The ability of replacement compounds to support cellular growth in the absence of transferrin was evaluated using CHO cells maintained in CD CHO medium (Invitrogen Corporation, Carlsbad, Calif., the formulation of which is described in WO 98/08934). Stock cultures containing 5 μg/mL human holo-transferrin were prepared in CD CHO medium. For” for “For”, “CHO” for “293”, “1×10^5” for “2×10^5”, “passages.” for “passages. At each subculturing, cells were seeded at a density of 2×10^5 cells/mL.”, “0.2M” for “0.2 M”
Except where noted, replacement compounds were evaluated either alone or in combination with ferric chloride or ferrous sulfate at 25 μM, 50 μM and 100 μM. Values in the table represent the mean percentage of control growth for duplicate cultures determined at the third passage.
The ability of various replacement compounds to substitute for transferrin in the culture of CHO cells was determined. When added to the medium formulation un-complexed, the replacement compound is listed alone, when added as a complex with a transition metal, the source of the transition metal is listed with the metal binding compound.

293 cells [2] = test: β-galactosidase expression after transfection (pCMV-SPORT-β-gal, LIPOFECTAMINE 2000) of 293 cells in monolayer culture, 24-well plates; format: cell-based, human; details: Table 8, replacement compounds 25 μM in test media, 24 hrs post-transfection
Procedure: When cultured in suspension, cells were split to 3×10^5 viable cells per ml at each passage. On the week of transfection cells were seeded at 3×10^5 viable cells per ml. After ˜48 hrs of growth (day 2) cells were vortexed for 30 seconds and counted and appropriate volumes used for transfection as described in procedures below.
In addition, the base media comprises 2.4 g/L NaHCO3, 2.98 g/L Hepes, 4 mM L-glutamine and 3 ml/L PLURONIC F-68 (Invitrogen Corp., Carlsbad, Calif.).
The osmolarity is adjusted to from about 275-310 mOsm, preferably about 280 mOsm and the pH is adjusted to from about 7.0 to about 7.45 preferably about 7.4 respectively.
Three wells were set up for each treatment. A volume of media corresponding to 3×10^6 viable cells was centrifuged. The supernatant was removed and the cells re-suspended in 600 μl test media. Each well of a 24 well plate received 200 μl of the re-suspended cells.
To prepare the nucleic acid for the transfection experiments, 93 μl test media+3 μl DNA+24 μl LIPOFECTAMINE 2000 were combined in a microfuge tube and complexed for 30 minutes. A 40 μl aliquot of complex was added to each well. 250 μl test media was added to each well five hours after addition of complex. The final cell concentration was 1×10^6 viable cells per well; the final DNA concentration was 1 μg per 1×10^6 viable cells and the final LIPOFECTAMINE 2000 concentration was 8 μl per 1×10^6 viable cells.
24 hrs post-transfection, samples were collected for β-galactosidase quantitation. The contents of duplicate wells were pooled (i.e. ˜2×10^6 cells for the assay) for each sample and transferred to a microfuge tube. The cells were centrifuged, the supernatant was removed and the cells were re-suspended in 1 ml of D-PBS. The cells were pelleted a second time and re-suspended in 1 ml of D-PBS. The samples were then stored at −70° C. Prior to the assay for β-galactosidase, samples were freeze-thawed a total of five times.
293 cells were grown in monolayer culture in the presence of the various replacement compounds indicated and transfection experiments performed as described above. The results are shown in Table 8 and the values are β-galactosidase activity expressed as nanograms of β-galactosidase per 2×10^6 cells. A comparison was made between the transfection efficiency of DNA complexes formed in D-MEM medium and DNA complexes formed in test medium. […]
For cells transfected in 24-well plates, cells densities used were 1×10^6 viable cells per well.

Sp2/0 cells = test: Effect of replacement compounds on the growth of Sp2/0 cells in CD Hybridoma medium without transferrin, three passages; format: cell-based; details: third passage
Procedure: The ability of replacement compounds to support cellular growth in the absence of transferrin was evaluated using Sp2/0 cells maintained in CD Hybridoma medium (Invitrogen Corporation, Carlsbad, Calif.).
Stock cultures containing 5 μg/mL human holo-transferrin were prepared in CD Hybridoma medium. For replacement compound evaluation, Sp2/0 cells were established at an initial viable cell density of 0.5×10^5 cells/mL in stationary culture using 75 cm^2 tissue culture flasks in a final volume of 20 mL. All cultures were maintained at 37° C. in humidified air containing 8% CO2. To eliminate transferrin carry-over effects, cells were subcultured at the same seeding density at 4 day intervals for a total of three passages. Positive control cultures contained 5 μg/mL human holo-transferrin while negative control cultures were established in the absence of either transferrin or replacement compound. Replacement compound stocks were prepared at 0.1M-0.2M in ddH2O and solubilized when necessary using 5N NaOH or HCl. Iron complexes were established using 0.2M replacement compound and iron stocks mixed 1:1 (v/v) and incubated for 5-10 minutes at 22° C. All solutions containing replacement compounds were filter sterilized using a 0.22 μm Millex-GV filter prior to addition to transferrin and serum-free media.
Except where otherwise noted, replacement compounds were evaluated either alone or in combination with ferric chloride or ferrous sulfate at 25 μM, 50 μM and 100 μM. Values in the table represent the mean percentage of control growth for duplicate cultures determined at the third passage.
When added to the medium formulation un-complexed, the replacement compound is listed alone, when added as a complex with a transition metal, the source of the transition metal is listed with the replacement compound.

[3] = 25 μM, iron equimolar where combined
[4] = 25 μM, control 5 μg/mL human holo-transferrin

[Cl][Fe]([Cl])[Cl].c1ccc(Nc2ccccn2)nc1 [2,2-Dipyridylamine•Ferric Chloride]
mean percentage of control growth (293 cells [1]; [3]): 118 percentage of control growth | mean percentage of control growth (293 cells [1]; 50 μM): 96 percentage of control growth | mean percentage of control growth (293 cells [1]; 100 μM): 101 percentage of control growth | mean percentage of control growth (CHO cells; [4]): 40 percentage of control growth | mean percentage of control growth (CHO cells; 50 μM): 48 percentage of control growth | mean percentage of control growth (CHO cells; 100 μM): 65 percentage of control growth | β-galactosidase activity; D-MEM used for complexing, Test media to re-suspend cells (293 cells [2]): 347 nanograms of β-galactosidase per 2×10^6 cells | β-galactosidase activity; Test Media used for complexing and to re-suspend cells (293 cells [2]): 459 nanograms of β-galactosidase per 2×10^6 cells

Cc1occc(=O)c1O [3-Hydroxy-2-Methyl-4-Pyrone (Maltol), 3-Hydroxy-2-Methyl-4-Pyrone]
mean percentage of control growth (293 cells [1]; [3]): 0 percentage of control growth | mean percentage of control growth (293 cells [1]; 50 μM): 28 percentage of control growth | mean percentage of control growth (293 cells [1]; 100 μM): 81 percentage of control growth | β-galactosidase activity; D-MEM used for complexing, Test media to re-suspend cells (293 cells [2]): 103 nanograms of β-galactosidase per 2×10^6 cells | β-galactosidase activity; Test Media used for complexing and to re-suspend cells (293 cells [2]): 52 nanograms of β-galactosidase per 2×10^6 cells | mean percentage of control growth (Sp2/0 cells; [4]): 0 percentage of control growth | mean percentage of control growth (Sp2/0 cells; 50 μM): 0 percentage of control growth | mean percentage of control growth (Sp2/0 cells; 100 μM): 0 percentage of control growth

O=S(=O)([O-])[O-].[Fe+2].[O-][n+]1cccc(O)c1 [3-Hydroxypyridine-N-Oxide•Ferrous Sulfate]
mean percentage of control growth (293 cells [1]; [3]): 104 percentage of control growth | mean percentage of control growth (293 cells [1]; 50 μM): 58 percentage of control growth | mean percentage of control growth (293 cells [1]; 100 μM): 0 percentage of control growth | β-galactosidase activity; D-MEM used for complexing, Test media to re-suspend cells (293 cells [2]): 176 nanograms of β-galactosidase per 2×10^6 cells | β-galactosidase activity; Test Media used for complexing and to re-suspend cells (293 cells [2]): 317 nanograms of β-galactosidase per 2×10^6 cells

Diethylenetriamine Penta-Acetic Acid•Ferric Chloride
mean percentage of control growth (293 cells [1]; [3]): 79 percentage of control growth | mean percentage of control growth (293 cells [1]; 50 μM): 96 percentage of control growth | mean percentage of control growth (293 cells [1]; 100 μM): 102 percentage of control growth | β-galactosidase activity; D-MEM used for complexing, Test media to re-suspend cells (293 cells [2]): 131 nanograms of β-galactosidase per 2×10^6 cells | β-galactosidase activity; Test Media used for complexing and to re-suspend cells (293 cells [2]): 574 nanograms of β-galactosidase per 2×10^6 cells

Human Transferrin (as control): human transferrin used as control replacement compound in test media
β-galactosidase activity; D-MEM used for complexing, Test media to re-suspend cells (293 cells [2]): 326 nanograms of β-galactosidase per 2×10^6 cells | β-galactosidase activity; Test Media used for complexing and to re-suspend cells (293 cells [2]): 3279 nanograms of β-galactosidase per 2×10^6 cells

Serine Hydroxamate•Ferric Chloride
mean percentage of control growth (293 cells [1]; [3]): 68 percentage of control growth | mean percentage of control growth (293 cells [1]; 50 μM): 65 percentage of control growth | mean percentage of control growth (293 cells [1]; 100 μM): 51 percentage of control growth | mean percentage of control growth (CHO cells; [4]): 106 percentage of control growth | mean percentage of control growth (CHO cells; 50 μM): 121 percentage of control growth | mean percentage of control growth (CHO cells; 100 μM): 124 percentage of control growth | mean percentage of control growth (Sp2/0 cells; [4]): 46 percentage of control growth | mean percentage of control growth (Sp2/0 cells; 50 μM): 66 percentage of control growth | mean percentage of control growth (Sp2/0 cells; 100 μM): 62 percentage of control growth

Source: US9879243B2, “Culture medium for cell growth and transfection” (LIFE TECHNOLOGIES CORPORATION, priority 2001, dated 2018)
